Assay results as given in US8012942B2, “Carba-nucleoside analogs for antiviral treatment” (Gilead Sciences, Inc., priority 2009, dated 2011).
Like-named read-outs stand apart in the source and are kept apart here.

Columns and labels:
HCV Δ21 NS5b polymerase = target: T1, HCV Δ21 NS5b polymerase (Hepatitis C virus genotype 1b, UniProt Q9WMX2); assay: HCV IC50 determination, NS5b polymerase assay; format: biochemical
T1 construct: 75 nM HCV Δ21 NS5b polymerase
Description: Assay Protocol: Either wild type or S282T (Migliaccio, et al, J. Biol. Chem. 2003, 49164-49170; Klumpp, et al., J. Biol. Chem. 2006, 3793-3799) mutant polymerase enzyme was used in this assay. NS5b polymerase assay (40 μL) was assembled by adding 28 μL polymerase mixture (final concentration: 50 mM Tris-HCl at pH 7.5, 10 mM KCL, 5 mM MgCl2, 1 mM DTT, 10 mM EDTA, 4 ng/μL of RNA template, and 75 nM HCV Δ21 NS5b polymerase) to assay plates followed by 4 μL of compound dilution. The polymerase and compound were pre-incubated at 35° C. for 10 minute before the addition of 8 μL of nucleotide substrate mixture (33P-α-labeled competing nucleotide at KM and 0.5 mM of the remaining three nucleotides). The assay plates were covered and incubated at 35° C. for 90 min. Reactions were then filtered through 96-well DEAE-81 filter plates via vacuum. The filter plates were then washed under vacuum with multiple volumes of 0.125 M NaHPO4, water, and ethanol to remove unincorporated label. Plates were then counted on TopCount to assess the level of product synthesis over background controls. The IC50 value is determined using Prism fitting program.

Replicon cells = assay: HCV EC50 determination, replicon luciferase assay; format: cell-based; conditions: Hepatitis C virus, 72 h
Description: Replicon cells were seeded in 96-well plates at a density of 8×10^3 cells per well in 100 μL of culture medium, excluding Geneticin. Compound was serially diluted in 100% DMSO and then added to the cells at a 1:200 dilution, achieving a final concentration of 0.5% DMSO and a total volume of 200 μL. Plates were incubated at 37° C. for 3 days, after which culture medium was removed and cells were lysed in lysis buffer provided by Promega's luciferase assay system. Following the manufacturer's instruction, 100 μL of luciferase substrate was added to the lysed cells and luciferase activity was measured in a TopCount luminometer.

[1] = replicon cells, 3 days at 37° C., luciferase activity, read-out: EC50

Structure (SMILES) | IC50 (HCV Δ21 NS5b polymerase) [µM] | EC50 (Replicon cells; [1]) [µM] | other results
C[C@@]1(O)[C@H](O)[C@@H](COP(=O)(O)OP(=O)(O)OP(=O)(O)O)O[C@H]1c1scc2c(=O)[nH]c(N)nc12 [Compound 63] | 0.27 | – | –
CC(C)(C)C(=O)SCCOP(=O)(OCCSC(=O)C(C)(C)C)OC[C@H]1O[C@@H](c2scc3c(N)ncnc23)[C@](C)(O)[C@@H]1O [Compound 2] | – | 6.1 | –
C[C@@]1(O)[C@H](O)[C@@H](COP(=O)(O)OP(=O)(O)OP(=O)(O)O)O[C@H]1c1scc2c(N)ncnc12 [Compound 4] | 0.37 | – | –
C[C@@]1(O)[C@H](O)[C@@H](CO)O[C@H]1c1scc2c(N)ncnc12 [Compound 1] | – | 90 | –
CC(C)(C)C(=O)SCCOP(=O)(OCCSC(=O)C(C)(C)C)OC[C@H]1O[C@@H](c2scc3c(=O)[nH]c(N)nc23)[C@](C)(O)[C@@H]1O [Compound 62] | – | 24 | –
CCOC(=O)[C@H](C)NP(=O)(OC[C@H]1O[C@@H](c2scc3c(N)ncnc23)[C@](C)(O)[C@@H]1O)Oc1ccccc1 (stereo partly drawn) [Compound 64] | – | – | EC50 (Replicon cells): 2.9 µM
